What follows are compounds tested against MAPK14 (human) (UniProt Q16539) (assay: Inhibition of MAPK14 Kinase Activity).
Sequence of MAPK14 (human) (Q16539 whole entry, looked up): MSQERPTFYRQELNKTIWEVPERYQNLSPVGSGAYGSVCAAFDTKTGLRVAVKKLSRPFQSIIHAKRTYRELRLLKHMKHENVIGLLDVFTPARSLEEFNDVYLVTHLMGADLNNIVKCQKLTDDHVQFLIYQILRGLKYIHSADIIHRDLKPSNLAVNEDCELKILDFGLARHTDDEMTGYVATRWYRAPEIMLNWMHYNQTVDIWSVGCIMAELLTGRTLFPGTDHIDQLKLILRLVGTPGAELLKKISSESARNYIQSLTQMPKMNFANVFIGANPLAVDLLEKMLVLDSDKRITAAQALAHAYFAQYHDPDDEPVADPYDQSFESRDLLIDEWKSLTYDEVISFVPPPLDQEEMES

SMILES	IC50 [µM]
CC(=O)NC1CC(Cl)C(N2CC(Sc3ccc(F)cc3F)CCC2=O)C(Cl)C1 (configuration not stated)	≤ 10
O=C1CSC(Cc2cc(Cl)cc(Cl)c2)CN1c1c(Cl)cccc1Cl (configuration not stated)	≤ 10
O=C1COC(Cc2ccc(F)cc2F)CN1c1c(Cl)ccc(CO)c1Cl (configuration not stated)	≤ 10
Cc1ccc(CC2CNC(=O)N(c3c(Cl)cccc3Cl)C2)cc1 (configuration not stated)	≤ 10
O=C1NCC(Cc2ccc(F)cc2F)CN1c1c(Cl)cc(CO)cc1Cl (configuration not stated)	≤ 10
O=C1NCC(Cc2ccc(F)cc2)CN1c1c(Cl)cccc1Cl (configuration not stated)	≤ 10
O=C(Cc1ccccc1)Nc1cc(Cl)c(N2CC(Cc3ccc(F)cc3F)CNC2=O)c(Cl)c1 (configuration not stated)	≤ 10
Nc1cc(Cl)c(N2CC(Cc3ccc(F)cc3F)OCC2=O)c(Cl)c1 (configuration not stated)	≤ 10
NC(=O)C[C@H](N)C(=O)Nc1cc(Cl)c(N2CC(Cc3ccc(F)cc3F)CCC2=O)c(Cl)c1 (some centres not stated)	≤ 10
O=C1CCC(Cc2ccc(F)cc2F)CN1c1c(Cl)cc(N2C(=O)CCCC2=O)cc1Cl (configuration not stated)	≤ 10
CNc1sc(Cl)c(N2CC(Cc3ccc(F)cc3F)CCC2=O)c1Cl (configuration not stated)	≤ 10
O=C1NCC(Cc2ccc(F)cc2F)CN1c1c(Cl)cccc1Cl (configuration not stated)	≤ 10
O=C1SCC(Cc2ccc(F)cc2F)CN1c1c(Cl)ccc(O)c1Cl (configuration not stated)	≤ 10
Cc1cc(C#CCCN2CCOCC2)cc(C)c1N1CC(Cc2ccc(F)cc2F)CCC1=O (configuration not stated)	≤ 10
CC(=O)NC1CCC(Cl)C(N2CC(Cc3ccc(F)cc3F)CCC2=O)C1Cl (configuration not stated)	≤ 10
Cc1ccc(OC2CCC(=O)N(c3c(Cl)cncc3Cl)C2)c(C)c1 (configuration not stated)	≤ 10
CNC1CCC(Cl)C(N2CC(Sc3ccc(F)cc3F)CCC2=O)C1Cl (configuration not stated)	≤ 10
CCOC(=O)CN(C(=O)OC(C)(C)C)c1cc(Cl)c(N2CC(Cc3ccc(F)cc3F)CCC2=O)c(Cl)c1 (configuration not stated)	≤ 10

SMILES	IC50 [µM]
CC(=O)Nc1ccc(Cl)c(N2CC(Oc3ccc(F)cc3F)CCC2=O)c1Cl (configuration not stated)	≤ 10
O=C1CCC(Oc2ccc(F)cc2F)CN1c1c(Cl)cc(O)nc1Cl (configuration not stated)	≤ 10
O=C1SCC(Cc2ccc(F)cc2F)CN1c1c(Cl)cc(O)cc1Cl (configuration not stated)	≤ 10
O=C1CCC(Sc2ccc(F)cc2F)CN1C1C(Cl)CCCC1Cl (configuration not stated)	≤ 10
CNc1cc(Cl)c(N2CC(Cc3ccc(F)cc3F)CNC2=O)c(Cl)c1 (configuration not stated)	≤ 10
O=C1COC(Cc2ccc(Cl)cc2)CN1c1c(Cl)cccc1Cl (configuration not stated)	≤ 10
O=C(Cc1ccccc1)NC1CCC(Cl)C(N2CC(Sc3ccc(F)cc3F)CCC2=O)C1Cl (configuration not stated)	≤ 10
CC(=O)Nc1ccc(Cl)c(N2CC(Cc3ccc(F)cc3F)CCC2=O)c1 (configuration not stated)	≤ 10
O=C1CCC(Cc2ccc(F)cc2F)CN1C1CCCCC1 (configuration not stated)	≤ 10
O=C1CCC(Cc2ccc(F)cc2F)CN1c1c(Cl)cc(NCCN2CCCCC2)cc1Cl (configuration not stated)	≤ 10
O=C1CCC(Cc2ccc(F)cc2F)(Cc2ccc(F)cc2F)CN1c1c(Cl)cccc1Cl	≤ 10
COC(=O)c1cc(C)c(N2C[C@@H](Cc3ccc(F)cc3F)C[C@@H](C)C2=O)c(C)c1	≤ 10
O=C1CCC(Cc2ccc(F)cc2F)CN1C1C(Cl)CCCC1Cl (configuration not stated)	≤ 10
CC(=O)N1CC(=O)N(c2c(Cl)cccc2Cl)CC1Cc1ccc(F)cc1F (configuration not stated)	≤ 10
O=C(O)CNc1cc(Cl)c(N2CC(Cc3ccc(F)cc3F)CCC2=O)c(Cl)c1 (configuration not stated)	≤ 10
O=C1[C@H](O)C[C@@H](Cc2ccc(F)cc2F)CN1c1c(Cl)cccc1Cl	≤ 10
CC(=O)Nc1cc(Cl)c(N2CC(Oc3ccc(F)cc3F)CCC2=O)c(Cl)c1 (configuration not stated)	≤ 10

Results, then the compound that gave them:

IC50 [µM]	SMILES
≤ 10	COc1ccc(CC2CCC(=O)N(c3c(Cl)cccc3Cl)C2)cc1 (configuration not stated)
≤ 10	O=C1CCC(Sc2ccccc2Cl)CN1C1C(Cl)CCCC1Cl (configuration not stated)
≤ 10	Cc1ccc(CC2CN(c3c(Cl)cccc3Cl)C(=O)CO2)c(C)c1 (configuration not stated)
≤ 10	O=C1CCC(Sc2cccc3ccccc23)CN1C1C(Cl)CCCC1Cl (configuration not stated)
≤ 10	O=C(Cc1ccccc1)Nc1ccc(Cl)c(N2CC(Cc3ccc(F)cc3F)CCC2=O)c1Cl (configuration not stated)
≤ 10	Cc1ccc(CC2CCC(=O)N(c3c(Cl)csc3Cl)C2)c(C)c1 (configuration not stated)
≤ 10	COc1ccc(CC2CSC(=O)N(c3c(Cl)cccc3Cl)C2)cc1 (configuration not stated)
≤ 10	O=C1CCC(Sc2ccc(Cl)cc2Cl)CN1c1c(Cl)csc1Cl (configuration not stated)
≤ 10	CN1CC(Cc2ccc3ccccc3c2)CN(c2c(Cl)cccc2Cl)C1=O (configuration not stated)
≤ 10	O=C1CCC(Cc2ccc(Cl)cc2)CN1c1c(Cl)cncc1Cl (configuration not stated)
≤ 10	Cn1nc(C(C)(C)C)cc1NC(=O)CCc1ccccc1CC1CCC(=O)N(c2c(Cl)cccc2Cl)C1 (configuration not stated)
≤ 10	O=C(Cc1ccccc1)Nc1cc(Cl)c(N2CC(Oc3ccc(F)cc3F)CCC2=O)c(Cl)n1 (configuration not stated)
≤ 10	CN(C(=O)Cc1ccccc1)c1cc(Cl)c(N2CC(Cc3ccc(F)cc3F)CCC2=O)c(Cl)c1 (configuration not stated)
≤ 10	O=C1NCC(Cc2ccccc2F)CN1c1c(Cl)cccc1Cl (configuration not stated)
≤ 10	O=C1OCC(Cc2ccccc2Cl)CN1c1c(Cl)cccc1Cl (configuration not stated)
≤ 10	Cc1cc(C)cc(SC2CCC(=O)N(c3c(Cl)cccc3Cl)C2)c1 (configuration not stated)
≤ 10	O=C1CCC(Sc2ccc3ccccc3c2)CN1c1c(Cl)csc1Cl (configuration not stated)
≤ 10	O=C1CCC(Oc2ccc(Cl)cc2)CN1c1c(Cl)cccc1Cl (configuration not stated)
≤ 10	N#Cc1ccccc1CC1CCC(=O)N(c2c(Cl)cccc2Cl)C1 (configuration not stated)

IC50 [µM]	SMILES
≤ 10	Cc1ccc(CC2CCC(=O)N(c3c(Cl)cncc3Cl)C2)c(C)c1 (configuration not stated)
≤ 10	Cc1cc(C)cc(SC2CCC(=O)N(c3c(Cl)ccnc3Cl)C2)c1 (configuration not stated)
≤ 10	O=C1CCC(Sc2ccc(F)cc2F)CN1c1c(Cl)cc(CO)nc1Cl (configuration not stated)
≤ 10	O=C(NCc1ccccc1CC1CCC(=O)N(c2c(Cl)cccc2Cl)C1)NC1CCCCC1 (configuration not stated)
≤ 10	O=C1CCC(Sc2cccc3ccccc23)CN1c1c(Cl)csc1Cl (configuration not stated)
≤ 10	O=C1CCC(Sc2ccccc2Cl)CN1c1c(Cl)csc1Cl (configuration not stated)
≤ 10	CC(=O)Nc1cnc(Cl)c(N2CC(Sc3ccc(F)cc3F)CCC2=O)c1Cl (configuration not stated)
≤ 10	O=C1OCC(Cc2ccccc2F)CN1c1c(Cl)cccc1Cl (configuration not stated)
≤ 10	O=C1CCC(Sc2ccc(F)cc2F)CN1c1c(Cl)ccnc1Cl (configuration not stated)
≤ 10	O=C1CCC(Oc2cccc3ccccc23)CN1c1c(Cl)cccc1Cl (configuration not stated)
≤ 10	O=C1CCC(Sc2ccc(F)cc2F)CN1c1c(Cl)cc(CO)cc1Cl (configuration not stated)
≤ 10	O=C1CCC(Cc2ccccc2Cl)CN1c1c(Cl)ccnc1Cl (configuration not stated)
≤ 10	O=C(NCc1ccccc1CC1CCC(=O)N(c2c(Cl)cccc2Cl)C1)Nc1cccc(C(F)(F)F)c1 (configuration not stated)
≤ 10	Cc1ccc(OC2CCC(=O)N(c3c(Cl)csc3Cl)C2)cc1 (configuration not stated)
≤ 10	O=C1CCC(Oc2cc(Cl)cc(Cl)c2)CN1c1c(Cl)cccc1Cl (configuration not stated)
≤ 10	O=C1CCC(Cc2cc(F)cc(F)c2)CN1c1c(Cl)csc1Cl (configuration not stated)
≤ 10	O=C1CCC(Cc2ccc(F)cc2F)CN1c1c(Cl)cc(Br)cc1Cl (configuration not stated)
≤ 10	CNc1ccc(Cl)c(N2CC(Sc3ccc(F)cc3F)CCC2=O)c1Cl (configuration not stated)

From the Kinase Knowledgebase extract (Sharma et al. 2016)
